# Measured values: patent publication US5178662A, “Benzaldehyde acetal compounds, preparation process thereof, and herbicidal compositions containing the same as active ingredients” (Mitsui Toatsu Chemicals, Inc., priority 1990, dated 1993)
# System: ALS (acetolactate syntase) from barnyardgrass seedlings
# Assay: ALS (acetolactate syntase) inhibition test, barnyardgrass enzyme
# Type: biochemical
# Settings: 10,000 ppm (0.5 μg/0.5 ml) of compound; 1 hour at 30° C.; absorbance at 525 nm
# Method: (§1) To determine the selectivity in enzyme level between crops and weeds, an ALS inhibition test was conducted using pea as a typical broadleaf crop and barnyardgrass as a representative gramineous weeds.
# (§2) After seeds of pea and barnyardgrass were allowed to germinate at 25° C. for 8-14 days in a dark place, partially-purified suspensions (Suspensions A) of acetolactate syntase were separately obtained from the seedlings in accordance with the procedures described in the literature, Plant Physiology, 75, 827-831. In a test tube, 0.5 mg of one of test compounds was weighed, followed by the addition of 0.15 ml of a 20 mM K2 HPO4 solution and 0.25 ml of a reaction substrate medium which consisted of 40 mM of K2 HPO4, 40 mM of sodium pyruvate, 1 mM of TPP, 1 mM of MgCl2 and 20 μM of FAD so that 0.4 ml of a reaction solution (Solution B) was prepared. Added to 0.4 ml of Solution B was 0.1 ml of Suspension A. After the resultant mixture was shaken for 1 hour in a thermostat water bath controlled at 30° C., 50 μl of 6N sulfuric acid were added to terminate the reaction.
# (§3) Next, the test tube with the reaction-terminated liquid mixture contained therein was transferred into a thermostat water bath controlled at 60° C. and was heated for 15 minutes. Thereafter, 0.5 ml of a 0.5% creatine solution and 0.5 ml of a 5% alkaline α-naphthol solution were added, and the resultant mixture was maintained at 60° C. for 15 minutes. As a result, the test solution developed a pink-to-red color. After the above operation, the absorbance of the test solution at 525 nm was measured by a spectrophotometer (Absorbance 1 of Test Compound).
# (§4) Further, the absorbance (Absorbance 2 of Blank) of a solution obtained by subjecting a portion of Solution B to the above procedures without addition of any test compound and the absorbance (Absorbance 3 of sulfuric acid) of another solution obtained by subjecting another portion of Solution B to the above procedures which using 50 μl of 6N sulfuric acid as a test compound were also measured.
row,SMILES,Enzymoreaction inhibition rate (%) Barnyardgrass
1,"COc1cc(OC)nc(Oc2ccccc2C=O)n1 [Comp. Comp'd B, reference compound]",98%

# System: Soybean (Glycine max)
# Assay: Upland soil application test, crop injury soybean
# Type: in vivo
# Settings: soil application one day after seeding, 50 g ai/a, wettable powder, fresh weight on 50th day after spray
# Method: (§5) Resin-made 1/1000-are pots were filled with the soil of an upland field. After they were fertilized, cotton and soybean were seeded and 3 cm soil covering was applied. In addition, amaranth, common lambs-quarters, barnyardgrass, green foxtail, large crabgrass and johnsongrass were seeded and 1 cm soil covering was applied. One day later, a wettable powder prepared from a predetermined amount of each test compound in a similar manner to the procedures described in Formulation Example 1 was diluted with water and then sprayed evenly at an application rate equal to 10 l per are onto the surface of the soil by means of a pressure-operated sprayer. The weeds and crops were allowed to grow in a green house and influence to them were observed on the 50th day after the spray. The degree of damages of each test plant and the degree of injury to each crop were determined by measuring fresh weight in each group and indicated by % calculated according to the following formula. [formula]
row,SMILES,Crop injury Soybean (Glycine max)
1,"COc1cc(OC)nc(Oc2ccccc2C=O)n1 [Comp. Comp'd B, reference compound]",100%

# System: Crabgrass (Digitaria adscendens)
# Assay: Upland soil application test, large crabgrass
# Type: in vivo
# Settings: 1200 h, soil application one day after seeding, 50 g ai/a, wettable powder, fresh weight on 50th day after spray, read-out: Herbicidal effects Crabgrass (Digitaria adscendens)
# Method: as §5
row,SMILES,pest or weed control at 5000 g/ha
1,"COc1cc(OC)nc(Oc2ccccc2C=O)n1 [Comp. Comp'd B, reference compound]",100%

# System: Crabgrass (Digitaria adscendens)
# Assay: Upland foliar application test, large crabgrass
# Type: in vivo
# Settings: 960 h, foliar application at stage of 2-3 leaves, 50 g ai/a, emulsion, 40th day after spray, read-out: Herbicidal effects Crabgrass (Digitaria adscendens)
# Method: as §5
# (§6) Resin-made 1/1000-are pots were filled with the soil of an upland field. After they were fertilized, cotton and soybean were seeded and 3 cm soil covering was applied. Five days later, amaranth, common lambsquarters, barnyardgrass, green foxtail, large crabgrass and johnsongrass were seeded and 1 cm soil covering was applied. They were allowed to grow in a green house. When each plant grew to the stage of 2-3 leaves, an emulsion formulated from a predetermined amount of each test compound in a similar manner to the procedures described in Formulation Example 11 was diluted with water and then sprayed at a predetermined application rate by means of a pressure-operated sprayer. The application rate was controlled at 5 l per are. Influence to the crops and weeds were observed on the 40th day after the spray of the herbicides. The results are shown in Table 4 in which the degree of damages of each test plant and the degree of injury to each crop are shown in a similar manner to Test 2.
row,SMILES,pest or weed control at 5000 g/ha
1,"COc1cc(OC)nc(Oc2ccccc2C=O)n1 [Comp. Comp'd B, reference compound]",100%

# System: Cotton (Gossypium indicum)
# Assay: Upland foliar application test, crop injury cotton
# Type: in vivo
# Settings: foliar application at stage of 2-3 leaves, 50 g ai/a, emulsion, 40th day after spray
# Method: as §5, §6
row,SMILES,Crop injury Cotton (Gossypium indicum)
1,"COc1cc(OC)nc(Oc2ccccc2C=O)n1 [Comp. Comp'd B, reference compound]",100%

# System: Johnsongrass
# Assay: Upland soil application test, johnsongrass
# Type: in vivo
# Settings: Sorghum halepense, 1200 h; soil application one day after seeding, 50 g ai/a, wettable powder, fresh weight on 50th day after spray; read-out: Herbicidal effects Johnsongrass
# Method: as §5
row,SMILES,pest or weed control at 5000 g/ha
1,"COc1cc(OC)nc(Oc2ccccc2C=O)n1 [Comp. Comp'd B, reference compound]",100%

# System: Amaranth (Amaranthus viridis)
# Assay: Upland foliar application test, amaranth
# Type: in vivo
# Settings: 960 h, foliar application at stage of 2-3 leaves, 50 g ai/a, emulsion, 40th day after spray, read-out: Herbicidal effects Amaranth (Amaranthus viridis)
# Method: as §5, §6
row,SMILES,pest or weed control at 5000 g/ha
1,"COc1cc(OC)nc(Oc2ccccc2C=O)n1 [Comp. Comp'd B, reference compound]",80%

# System: Foxtail (Setaria viridis)
# Assay: Upland foliar application test, green foxtail
# Type: in vivo
# Settings: 960 h, foliar application at stage of 2-3 leaves, 50 g ai/a, emulsion, 40th day after spray, read-out: Herbicidal effects Foxtail (Setaria viridis)
# Method: as §5, §6
row,SMILES,pest or weed control at 5000 g/ha
1,"COc1cc(OC)nc(Oc2ccccc2C=O)n1 [Comp. Comp'd B, reference compound]",100%

# System: Johnsongrass
# Assay: Upland foliar application test, johnsongrass
# Type: in vivo
# Settings: Sorghum halepense, 960 h; foliar application at stage of 2-3 leaves, 50 g ai/a, emulsion, 40th day after spray; read-out: Herbicidal effects Johnsongrass
# Method: as §6
row,SMILES,pest or weed control at 5000 g/ha
1,"COc1cc(OC)nc(Oc2ccccc2C=O)n1 [Comp. Comp'd B, reference compound]",100%

# System: Barnyardgrass (Echinochloa crusgalli)
# Assay: Upland foliar application test, barnyardgrass
# Type: in vivo
# Settings: Echinochloa crus-galli, 960 h; foliar application at stage of 2-3 leaves, 50 g ai/a, emulsion, 40th day after spray; read-out: Herbicidal effects Barnyardgrass (Echinochloa crusgalli)
# Method: as §6
row,SMILES,pest or weed control at 5000 g/ha
1,"COc1cc(OC)nc(Oc2ccccc2C=O)n1 [Comp. Comp'd B, reference compound]",100%

# System: Foxtail (Setaria viridis)
# Assay: Upland soil application test, green foxtail
# Type: in vivo
# Settings: 1200 h, soil application one day after seeding, 50 g ai/a, wettable powder, fresh weight on 50th day after spray, read-out: Herbicidal effects Foxtail (Setaria viridis)
# Method: as §5
row,SMILES,pest or weed control at 5000 g/ha
1,"COc1cc(OC)nc(Oc2ccccc2C=O)n1 [Comp. Comp'd B, reference compound]",100%

# System: common lambsquarters
# Assay: Upland soil application test, common lambsquarters
# Type: in vivo
# Settings: Chenopodium album, 1200 h; soil application one day after seeding, 50 g ai/a, wettable powder, fresh weight on 50th day after spray; read-out: Herbicidal effects Common lambquarters
# Method: as §5
row,SMILES,pest or weed control at 5000 g/ha
1,"COc1cc(OC)nc(Oc2ccccc2C=O)n1 [Comp. Comp'd B, reference compound]",85%

# System: ALS (acetolactate syntase) from pea seedlings
# Assay: ALS (acetolactate syntase) inhibition test, pea enzyme
# Type: biochemical
# Settings: 10,000 ppm (0.5 μg/0.5 ml) of compound; 1 hour at 30° C.; absorbance at 525 nm
# Method: as §1, §2, §3, §4
row,SMILES,Enzymoreaction inhibition rate (%) Pea
1,"COc1cc(OC)nc(Oc2ccccc2C=O)n1 [Comp. Comp'd B, reference compound]",92%

# System: common lambsquarters
# Assay: Upland foliar application test, common lambsquarters
# Type: in vivo
# Settings: Chenopodium album, 960 h; foliar application at stage of 2-3 leaves, 50 g ai/a, emulsion, 40th day after spray; read-out: Herbicidal effects Common lambquarters
# Method: as §6
row,SMILES,pest or weed control at 5000 g/ha
1,"COc1cc(OC)nc(Oc2ccccc2C=O)n1 [Comp. Comp'd B, reference compound]",80%

# System: Barnyardgrass (Echinochloa crusgalli)
# Assay: Upland soil application test, barnyardgrass
# Type: in vivo
# Settings: Echinochloa crus-galli, 1200 h; soil application one day after seeding, 50 g ai/a, wettable powder, fresh weight on 50th day after spray; read-out: Herbicidal effects Barnyardgrass (Echinochloa crusgalli)
# Method: as §5
row,SMILES,pest or weed control at 5000 g/ha
1,"COc1cc(OC)nc(Oc2ccccc2C=O)n1 [Comp. Comp'd B, reference compound]",100%

# System: johnsongrass emerging from rhizome
# Assay: Application test on johnsongrass emerging from rhizome
# Type: in vivo
# Settings: foliar application at stage of 4-5 leaves, application rate of active ingredient 20 (unit not given), emulsion, 50th day after spray
# Method: as §5
# Resin-made 1/1000-are pots were filled with the soil of an upland field. After they were fertilized, rhizome of johnsongrass were transplanted to the pots and 3 cm soil covering was applied. They were allowed to grow in a green house. When each johnsongrass grew to the stage of 4-5 leaves, an emulsion formulated from a predetermined amount of each test compound in a similar manner to the procedures described in Formulation Example 11 was diluted with water and then sprayed at a predetermined application rate by means of a pressure-operated sprayer. The application rate was controlled at 5 l per are. The effect of each compound against the johnsongrass emerging from its rhizome was observed on the 50th day after the spray of the herbicides. The results are shown in Table 5 in which the herbicidal effect against johnsongrass is shown in a similar manner to Test 2.
row,SMILES,Herbicidal effect against johnsongrass emerging from rhizome
1,"COc1cc(OC)nc(Oc2ccccc2C=O)n1 [Comp. Comp'd B, reference compound]",35%

# System: Soybean (Glycine max)
# Assay: Upland foliar application test, crop injury soybean
# Type: in vivo
# Settings: foliar application at stage of 2-3 leaves, 50 g ai/a, emulsion, 40th day after spray
# Method: as §6
row,SMILES,Crop injury Soybean (Glycine max)
1,"COc1cc(OC)nc(Oc2ccccc2C=O)n1 [Comp. Comp'd B, reference compound]",100%

# System: Cotton (Gossypium indicum)
# Assay: Upland soil application test, crop injury cotton
# Type: in vivo
# Settings: soil application one day after seeding, 50 g ai/a, wettable powder, fresh weight on 50th day after spray
# Method: as §5
row,SMILES,Crop injury Cotton (Gossypium indicum)
1,"COc1cc(OC)nc(Oc2ccccc2C=O)n1 [Comp. Comp'd B, reference compound]",100%

# System: Amaranth (Amaranthus viridis)
# Assay: Upland soil application test, amaranth
# Type: in vivo
# Settings: 1200 h, soil application one day after seeding, 50 g ai/a, wettable powder, fresh weight on 50th day after spray, read-out: Herbicidal effects Amaranth (Amaranthus viridis)
# Method: as §5
row,SMILES,pest or weed control at 5000 g/ha
1,"COc1cc(OC)nc(Oc2ccccc2C=O)n1 [Comp. Comp'd B, reference compound]",80%
